Measurements as given in US20110152362A1, “METHODS OF TREATING EPILEPTOGENESIS AND EPILEPSY” (priority 2004, published 2011).

Legend:
[1] = tested on: rats subjected to Li-pilo induced SE; assay: Example 1: mortality induced by lithium-pilocarpine status epilepticus; assay type: in vivo, rat
Description: The bilateral EEG cortical activity was recorded during the whole duration of SE and behavioral changes were noted.
The effects of increasing doses of the Test Compound were studied on 3 groups of rats. The animals of the first group received 10 mg/kg of the test compound, i.p., 1 h after the onset of SE (pilo-TC10) while the animals of groups 2 and 3 received 30 and 60 mg/kg of the Test Compound (pilo-TC30 and pilo-TC60), respectively.
The control group received saline instead of pilocarpine and the Test Compound (saline-saline). […] Pilo-DZP received a second injection of 1 mg/kg DZP on the day of SE at about 10 h after the first one. Thereafter, Pilo-DZP and saline-saline rats received twice daily an equivalent volume of saline.

[2] = tested on: rats subjected to li-pilo SE; assay: Example 2: mortality over the first 48 h after Li-pilo SE; assay type: in vivo, rat; design: concentration or dose not given beside the values
[3] = tested on: rats subjected to li-pilo SE; assay: Example 2: latency to and frequency of spontaneous seizures (video recording); assay type: in vivo, rat
Description: The effects of DZP and the 4 doses of TC on epileptogenesis were investigated by daily video recording of the animals for 10 h per day. Video recording was performed for 4 weeks during which the occurrence of the first seizure was noted as well as the total number of seizures over the whole period. Animals were then taken off the video recording system and kept for 4 additional weeks in our animal facilities before they were sacrificed after a total period of 8 weeks of epilepsy.

[4] = Example 3 study 1: single oral dose pharmacokinetics in healthy men; assay type: in vivo, human
Description: Two single-center, placebo-controlled, double-blind, ascending-dose studies were conducted in healthy men ≧18 and ≦45 yrs. In study 1 (N=70), subjects were randomly assigned to a single dose of Test Compound (TC) or placebo. Escalated doses were received as 100, 250, 400, 750, 1000, 1250, and 1500 mg. PK parameters were estimated from plasma and urine samples collected up to 3 days post dose. Study 2 (N=53) evaluated the PK of repeated doses of Test Compound (TC) in 4 dose groups (100, 250, 500, or 750 mg). Within each group, 12 subjects were assigned to q12h treatment with drug or placebo for 1 wk and were crossed over after a 14-day washout period. PK parameters were estimated from plasma and urine samples on days 1 and 7.

[5] = tested on: rats subjected to li-pilo SE; assay: Example 2: quantification of cell densities 14 days after li-pilo SE;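 also: Thionine-stained 20 µm brain sections, neurons with cell bodies above 10 µm counted, value is the mean of 12 fields per structure from three adjacent sections, both sides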
Description: All rats received lithium chloride (3 meq/kg, i.p., Sigma, St Louis, Mo., U.S.A.) and about 20 h later, all animals received also methylscopolamine bromide (1 mg/kg, s.c., Sigma) that was administered to limit the peripheral effects of the convulsant. […] The effects of increasing doses of TC were studied in 5 groups of rats. […] The control group received vehicle instead of pilocarpine and TC.
For neuronal counting, animals were deeply anesthetized with 1.8 g/kg pentobarbital (Dolethal®, Vetoquinol, Lure, France). Brains were then removed and frozen. Serial 20 μm slices were cut in a cryostat, air-dried during several days before thionine staining. […] The grid of counting was placed on a well defined area of the cerebral structure of interest and counting was carried out with a microscopic enlargement of 200- or 400-fold defined for each single cerebral structure. Cell counts were performed twice on each side of three adjacent sections for each region by a single observer unaware of the animal's treatment. The number of cells obtained in the 12 counted fields in each cerebral structure was averaged. This procedure was used to minimize the potential errors that could result from double counting leading to overestimation of cell numbers. […] Counts involved only neurons with cell bodies larger than 10 μm. Cells with small cell bodies were considered as glial cells and were not counted.
For neuronal damage and epileptogenesis, statistical analysis between groups was performed by means of a one-way analysis of variance followed by a post-hoc Dunnett or Fisher test using the Statistica software.

[6] = pilo-TC30 (TC 30 mg/kg), 14 days after li-pilo SE

NC(=O)OC[C@@H](O)c1ccccc1Cl [TC]
mortality during the first 48 h after SE ([1]; pilo-TC10, 10 mg/kg i.p.): 26%
mortality during the first 48 h after SE ([1]; pilo-TC30, 30 mg/kg i.p.): 20%
mortality during the first 48 h after SE ([1]; pilo-TC60, 60 mg/kg i.p.): 4%
mortality over the first 48 h after SE ([2]; TC30, group for cell counting at 14 days): 33%
mortality over the first 48 h after SE ([2]; TC30, group for latency to SRS and late cell counting): 27%
mortality over the first 48 h after SE ([2]; TC60, group for cell counting at 14 days): 8%
mortality over the first 48 h after SE ([2]; TC60, group for latency to SRS and late cell counting): 0%
mortality over the first 48 h after SE ([2]; TC90, group for cell counting at 14 days): 0%
mortality over the first 48 h after SE ([2]; TC90, group for latency to SRS and late cell counting): 0%
mortality over the first 48 h after SE ([2]; TC120, group for cell counting at 14 days): 33%
mortality over the first 48 h after SE ([2]; TC120, group for latency to SRS and late cell counting): 0%
effect on the latency to the first spontaneous seizure ([3]; 30 mg/kg): did not affect the latency to the first spontaneous seizure
latency of long latency subgroup relative to short latency ([3]; 3 higher doses (60, 90, 120 mg/kg)): 4-6 times longer
frequency of spontaneous seizures over four weeks of recording ([3]; TC60, 90 and 120 groups vs DZP and TC30 groups): lower
percentage of rats with short latencies to seizures ([3]; at 30 mg/kg (so in the source), short latency = shorter than 40 days after SE): 70%
percentage of rats with short latencies to seizures ([3]; at 90 mg/kg): 36%
percentage of rats with short latencies to seizures ([3]; at 120 mg/kg): 11%
percentage of non-epileptic rats (no seizure over 150 days post-SE) ([3]; at both highest doses, 90 and 120 mg/kg): 45%
Latency to the first spontaneous seizure ([3]; pilo-TC30, 30 mg/kg): 11.6 ± 2.5 days
Latency to the first spontaneous seizure ([3]; pilo-TC60, Long latency subgroup): 76.7 ± 15.6**°° days
Latency to the first spontaneous seizure ([3]; pilo-TC60, Short latency subgroup): 17.4 ± 5.4 days
Latency to the first spontaneous seizure ([3]; pilo-TC90, Long latency subgroup): 52.0 ± 1.0*° days
Latency to the first spontaneous seizure ([3]; pilo-TC90, Non epileptic subgroup (no seizure over 150 days post-SE)): 150**°° days
Latency to the first spontaneous seizure ([3]; pilo-TC90, Short latency subgroup): 14.8 ± 5.7 days
Latency to the first spontaneous seizure ([3]; pilo-TC120, Long latency subgroup): 84.5 ± 16.7**°° days
Latency to the first spontaneous seizure ([3]; pilo-TC120, Non epileptic subgroup (no seizure over 150 days post-SE)): 150**°° days
Latency to the first spontaneous seizure ([3]; pilo-TC120, Short latency subgroup): 13.0 days
Tmax ([4]; male, human, plasma, single oral dose 100-1500 mg, healthy men): 1.3 to 2.7 h
half-life ([4]; male, human, plasma, single oral dose 100-1500 mg, healthy men, read-out: Mean t1/2): 11.5 to 13.9 h
Cmax and AUC0-∞ dose dependence ([4]; single dose over the range of 100-1500 mg): increased in proportion to dose
Mean CL/F ([4]; single oral dose 100-1500 mg, healthy men): 2.87 to 3.67 L/h
absorption following oral administration ([4]; single oral dose, healthy men): rapidly absorbed
protective effects at lowest dose tested in Example 2 ([5]; 30 mg/kg): some measurable protective effects
neuronal drop out, layer II of the dorsal piriform cortex ([5]; TC 60 mg/kg, 14 days after SE): 25%
damage remaining, ventral entorhinal cortex layer II ([5]; TC 90 mg/kg, 14 days after SE): 4%
damage remaining, ventral entorhinal cortex layers III/IV ([5]; TC 90 mg/kg, 14 days after SE): 17%
neuronal density in piriform cortex, % of control levels ([5]; TC 120 mg/kg, 14 days after SE): 78-96 % of control levels
neurons surviving in entorhinal cortex, dorsal and ventral ([5]; TC 120 mg/kg, 14 days after SE): 85-94%
cell loss (drop out) in the hilus of dentate gyrus ([5]; TC30, 60 and 90 groups (range also covers DZP), 14 days after SE): 61-66%
cell loss, CA1 pyramidal cell layer ([5]; TC30, 60 or 90 rats, 14 days after SE): 36-47%
cell loss, CA1 pyramidal cell layer ([5]; TC120 group, 14 days after SE): 12%
neuronal loss in the hilus of dentate gyrus ([5]; TC120 group, 14 days after SE): 53%
neuronal drop out in thalamic nuclei ([5]; TC120 rats, 14 days after SE): 4-19%
number of neurons in all amygdala nuclei, % of the control level ([5]; highest dose, 120 mg/kg, 14 days after SE): 86-99 % of the control level
number of neuronal cell bodies: Amygdala Basolateral [5, 6]: 27.3 ± 4.9**°
number of neuronal cell bodies: Amygdala Medial, dorsal anterior [5, 6]: 46.8 ± 5.0
number of neuronal cell bodies: Amygdala Medial, ventral posterior [5, 6]: 22.3 ± 1.8
number of neuronal cell bodies: Cerebral cortex Entorhinal, layer II, dorsal [5, 6]: 23.4 ± 0.6
number of neuronal cell bodies: Cerebral cortex Entorhinal, layer II, ventral [5, 6]: 22.7 ± 0.9
number of neuronal cell bodies: Cerebral cortex Entorhinal, layer III/IV, dorsal [5, 6]: 22.3 ± 0.5
number of neuronal cell bodies: Cerebral cortex Entorhinal, layer III/IV, ventral [5, 6]: 13.2 ± 1.9
number of neuronal cell bodies: Cerebral cortex Piriform, layer II, dorsal [5, 6]: 15.7 ± 2.9
number of neuronal cell bodies: Cerebral cortex Piriform, layer II, ventral [5, 6]: 7.2 ± 3.8
number of neuronal cell bodies: Cerebral cortex Piriform, layer III [5, 6]: 1.8 ± 1.8
number of neuronal cell bodies: Hippocampus CA1 area [5, 6]: 39.3 ± 44**°°
number of neuronal cell bodies: Hippocampus CA3 area [5, 6]: 35.7 ± 1.8
number of neuronal cell bodies: Hippocampus Hilus [5, 6]: 33.0 ± 3.2
number of neuronal cell bodies: Thalamus Central medial [5, 6]: 75.6 ± 7.7
number of neuronal cell bodies: Thalamus Dorsolateral, medial, dorsal [5, 6]: 64.2 ± 9.3**°°
number of neuronal cell bodies: Thalamus Dorsolateral, ventral lateral [5, 6]: 8.8 ± 2.8
